Results reported in the NIST ThermoML archive (doi:10.1021/je030231w).
Where “and” joins values, the source holds several entries; their conditions need not be identical. Identical values can stand only once. Numbers after ± are expanded uncertainties.

What was measured:
[1] = mn = molality of the nth substance listed, in mol/kg; conditions: 298 K, 101.3 kPa, Liquid
[2] = Crystal, Calculated from knudsen effusion weight loss

Structure (SMILES)	mass density ([1]; m1 = 0.01034)	mass density ([1]; m1 = 0.01092)	mass density ([1]; m1 = 0.01101)	mass density ([1]; m1 = 0.01122)	mass density ([1]; m1 = 0.01187)	mass density ([1]; m1 = 0.01292)	vapor or sublimation pressure ([2]; 373.02 K)	vapor or sublimation pressure ([2]; 374.94 K)	vapor or sublimation pressure ([2]; 378.75 K)	vapor or sublimation pressure ([2]; 380.67 K)	vapor or sublimation pressure ([2]; 382.54 K)	vapor or sublimation pressure ([2]; 384.45 K)	vapor or sublimation pressure ([2]; 386.35 K)	vapor or sublimation pressure ([2]; 388.25 K)	vapor or sublimation pressure ([2]; 390.15 K)	vapor or sublimation pressure ([2]; 392.01 K)
O=c1[nH]cc(C(F)(F)F)c(=O)[nH]1 [5-(trifluoromethyl)uracil] + O	997.88 ± 0.2 kg/m3	997.938 ± 0.2 kg/m3	997.946 ± 0.19 kg/m3	997.96 ± 0.19 kg/m3	998.017 ± 0.19 kg/m3	998.089 ± 0.18 kg/m3										
O=c1[nH]cc(C(F)(F)F)c(=O)[nH]1 [5-(trifluoromethyl)uracil]							1.187e-05 ± 6e-07 kPa and 1.168e-05 ± 5.9e-07 kPa	1.376e-05 ± 7e-07 kPa	2.012e-05 ± 1e-06 kPa	2.417e-05 ± 1.2e-06 kPa	2.882e-05 ± 1.5e-06 kPa	3.348e-05 ± 1.7e-06 kPa	3.983e-05 ± 2e-06 kPa	4.61e-05 ± 2.3e-06 kPa	5.586e-05 ± 2.8e-06 kPa	6.401e-05 ± 3.2e-06 kPa and 6.45e-05 ± 3.2e-06 kPa
